Reference: patent publication US9833497B2, “Human originated EGF domain proteins and use of the same” (CHENGDU SOURCEBIO LIMITED-LIABILITY COMPANY, priority 2013, dated 2017)

How the values were obtained:
Format in all cases: cell-based
E. coli DH5α = assay: Antibacterial activity: MIC and growth curve against E. coli DH5α in 96-well plate; settings: minimal inhibitory concentration against E. coli DH5α; 96-well plate, 5×10^5 CFU/mL, 37° C., judged after 8 h
Method: 1. E. coli DH5α was exemplified. E. coli DH5α was streaked and cultured on LB solid medium. Then, a typical clone was picked and inoculated into common LB liquid medium, cultured at 37° C. with shaking at 185 rpm until the logarithmic growth phase was reached (OD600 of about 0.5). The bacterial culture was centrifuged at 4000×g for 3 min, the supernatant was discarded, and the thalli were resuspended with fresh LB medium.
2. The above-mentioned bacterial suspension was diluted and inoculated into a 96-well plate with the total volume of 100 μL per well and a bacterial count of 5×10^5 CFU/mL.
3. The recombinant protein hF VII-EGF1 was added to the above-mentioned wells with the final protein concentration in the well of the highest protein concentration being 50 μg/mL. Basing on this final concentration, a two-fold serial dilution was performed till a protein concentration gradient consisting of 50, 25, and 12.5 μg/mL was set up. Three parallel wells were set up for each concentration in the gradient.
4. The above-mentioned 96-well plate was placed and cultured at 37° C. in shaking incubator shaking at 175 rpm. Samples were taken every 30 min, the absorbance values were determined at 600 nm wavelength under a ultra violet spectrophotometer, and an inhibition curve was plotted. […] The minimal inhibitory concentration MIC is defined as the lowest concentration of the recombinant protein at which there is no growth of the bacteria.
According to the experimental procedures in Example 14, the minimal inhibitory concentrations (MIC, μg/mL) of the other human-originated EGF domain proteins (PRT2 to PRT1498 in Table 1) for E. coli DH5α were determined.

Pseudomonas aeruginosa = assay: MIC against Gram-negative bacteria: Pseudomonas aeruginosa; settings: Pseudomonas aeruginosa; 96-well plate, 5×10^5 CFU/mL, 37° C., 10 h
Method: (§1) 1. Gram-negative bacteria, such as E. coli BL21, Pseudomonas aeruginosa, Klebsiella pneumonia, Enterobacter cloacae, Aeromonas hydrophila, Citrobacter diversus, Moraxella catarrhalis, Proteus mirabilis, Proteus vulgaris, Serratia marcescens, etc were streaked on solid LB medium and cultured respectively. Then, typical clones were picked, inoculated into common liquid LB medium respectively, and cultured at 37° C. with shaking at 185 rpm until the McFarland specific turbidity was 0.5. The bacterial culture of each of Gram-negative bacteria was centrifuged at 4000×g for 3 min, the supernatant was discarded, and the thalli were resuspended with fresh LB medium.
(§2) 2. The above-mentioned bacterial suspensions were diluted and inoculated into 96-well plates with the final concentration of the bacterial suspension being 5×10^5 CFU/mL per well.
(§3) 3. Each of the purified human-originated EGF domain proteins (PRT1 to PRT1498 in Table 1) was added to each of the above wells and subjected to two-fold serial dilution in concentration. Three parallel wells were set up for each concentration in the gradient.
(§4) 4. The above-mentioned 96-well plates were placed and cultured at 37° C. in shaking incubator shaking at 175 rpm. […] The minimal inhibitory concentration MIC is defined as the lowest concentration of the recombinant protein at which there is no growth of the bacteria.

Citrobacter diversus = assay: MIC against Gram-negative bacteria: Citrobacter diversus; settings: Citrobacter diversus; 96-well plate, 5×10^5 CFU/mL, 37° C., 10 h
Method: as §1, §2, §3, §4

Klebsiella pneumonia = assay: MIC against Gram-negative bacteria: Klebsiella pneumonia; settings: Klebsiella pneumonia; 96-well plate, 5×10^5 CFU/mL, 37° C., 10 h
Method: as §1, §2, §3, §4

Serratia marcescens = assay: MIC against Gram-negative bacteria: Serratia marcescens; settings: Serratia marcescens; 96-well plate, 5×10^5 CFU/mL, 37° C., 10 h
Method: as §1, §2, §3, §4

Moraxella catarrhalis = assay: MIC against Gram-negative bacteria: Moraxella catarrhalis; settings: Moraxella catarrhalis; 96-well plate, 5×10^5 CFU/mL, 37° C., 10 h
Method: as §1, §2, §3, §4

Proteus mirabilis = assay: MIC against Gram-negative bacteria: Proteus mirabilis; settings: Proteus mirabilis; 96-well plate, 5×10^5 CFU/mL, 37° C., 10 h
Method: as §1, §2, §3, §4

Enterobacter cloacae = assay: MIC against Gram-negative bacteria: Enterobacter cloacae; settings: Enterobacter cloacae; 96-well plate, 5×10^5 CFU/mL, 37° C., 10 h
Method: as §1, §2, §3, §4

Proteus vulgaris = assay: MIC against Gram-negative bacteria: Proteus vulgaris; settings: Proteus vulgaris; 96-well plate, 5×10^5 CFU/mL, 37° C., 10 h
Method: as §1, §2, §3, §4

E. coli BL21 = assay: MIC against Gram-negative bacteria: E. coli BL21; settings: E. coli BL21; 96-well plate, 5×10^5 CFU/mL, 37° C., 10 h
Method: as §1, §2, §3, §4

Aeromonas hydrophila = assay: MIC against Gram-negative bacteria: Aeromonas hydrophila; settings: Aeromonas hydrophila; 96-well plate, 5×10^5 CFU/mL, 37° C., 10 h
Method: as §1, §2, §3, §4

Substance	MIC (E. coli DH5α) [µg/mL]	MIC (μg/mL) P. aeruginosa (Pseudomonas aeruginosa) [µg/mL]	MIC (μg/mL) C. diversus (Citrobacter diversus) [µg/mL]	MIC (μg/mL) K. pneumonia (Klebsiella pneumonia) [µg/mL]	MIC (μg/mL) S. marcescens (Serratia marcescens) [µg/mL]	MIC (μg/mL) M. catarrhalis (Moraxella catarrhalis) [µg/mL]	MIC (μg/mL) P. mirabilis (Proteus mirabilis) [µg/mL]	MIC (μg/mL) E. cloacae (Enterobacter cloacae) [µg/mL]	MIC (μg/mL) P. vulgaris (Proteus vulgaris) [µg/mL]	MIC (μg/mL) E. coli BL21 (E. coli BL21) [µg/mL]	MIC (μg/mL) A. hydrophila (Aeromonas hydrophila) [µg/mL]
PRT2 (DQLICVNENGGCEQYCSDHTGTKRSCRCHEGYSLLADGVSCT; listed as Homo sapiens)	25	50	25	50	12.5	12.5	25	25	12.5	50	25
PRT3 (DGDQCESNPCLNGGSCKDDINSYECWCPFGFEGKNCE; listed as Homo sapiens)	12.5	25	25	12.5	12.5	12.5	12.5	12.5	25	25	25
PRT4 (LDVTCNIKNGRCEQFCKNSADNKVVCSCTEGYRLAENQKSCE; listed as Homo sapiens)	25	25	12.5	25	25	25	25	12.5	50	50	25
PRT5 (DGDQCETSPCQNQGKCKDGLGEYTCTCLEGFEGKNCE; listed as Homo sapiens)	12.5	25	25	25	25	25	12.5	25	12.5	12.5	12.5
PRT6 (TRKLCSLDNGDCDQFCHEEQNSVVCSCARGYTLADNGKACI; listed as Homo sapiens)	50	25	25	50	25	25	12.5	25	25	50	12.5
PRT7 (TCLSSKEGTICSGNGVCSNELKCVCNRHWIGSDCN; listed as Homo sapiens)	12.5	25	12.5	12.5	12.5	25	50	12.5	50	25	50
PRT10 (NCSAQCHNHGVCNHKQECHCHAGWAPPHCA; listed as Homo sapiens)	25	12.5	25	50	12.5	12.5	12.5	12.5	25	50	50
PRT13 (PARSCAEEPCGAGTCKETEGHVICLCPPGYTGEHCN; listed as Homo sapiens)	25	12.5	25	25	12.5	12.5	50	12.5	25	12.5	12.5
PRT14 (PPKPCDSQPCFHGGTCQDWALGGGFTCSCPAGRGGAVCE; listed as Homo sapiens)	25	25	25	12.5	12.5	12.5	25	25	50	50	50
PRT15 (GDHPCLPNPCHGGAPCQNLEAGRFHCQCPPGRVGPTCA; listed as Homo sapiens)	25	25	25	12.5	25	12.5	12.5	50	12.5	50	12.5
PRT16 (EKSPCQPNPCHGAAPCRVLPEGGAQCECPLGREGTFCQ; listed as Homo sapiens)	12.5	25	25	12.5	25	12.5	50	12.5	25	12.5	50
PRT17 (AGHPCTRASGHPCLNGASCVPREAAYVCLCPGGFSGPHCE; listed as Homo sapiens)	12.5	12.5	50	25	25	25	12.5	50	50	12.5	12.5
PRT18 (CQCNPHGSYGGTCDPATGQCSCRPGVGGLRCDRCEPGFWNFRGIVTDGRSGCTP; listed as Homo sapiens)	12.5	25	12.5	100	12.5	12.5	25	50	12.5	50	25
